Test results from patent publication US12209135B2, “Anti-CD45 antibodies and conjugates thereof” (priority 2019, dated 2025).
Marks after values point to notes of the source that are not given here.

Legend:
REH-Luc ALL cells = assay: REH-Luciferase ALL xenograft (CDX) model; assay type: in vivo, immune deficient mice (NSG-SGM3, or NSG); settings: Table 23; 3 mg/kg QWx3
Experimental: (§1) A panel of models were evaluated to mimic untreated and refractory disease: AML patient derived xenograft (PDX) models (from treatment naïve and relapsed post allogeneic HCT patients; all FLT-3+NPM1+), ALL cells from an immortalized cell line (REH-Luc), and T-ALL patient-derived xenograft (PDX) model (from a patient progressing post DHAP chemotherapy).
(§2) AML #1 was derived from a treatment naïve patient (J000106134) and AML #2 was derived from a heavily pre-treated relapsed refectory patient post allogenic HSCT (J000106132), The T-ALL was derived from a patient progressing post DHAP chemotherapy. The cell line-derived ALL was transduced to express firefly luciferase. Cells of each tumor type were systemically inoculated into immune deficient mice (NSG-SGM3, or NSG).
(§3) Treatment began when peripheral tumor burden of PDX (n=3-5/group), and CDX mice reached 2-16% blast in the peripheral blood or day 5 post implant for the REH-luc model (n=10/group).
Bioluminescence signal was measured using the IVIS imaging system (PerkinElmer). Radiance (mean±SEM) was captured over a time course of the study. Representative bioluminescence signal pseudo colored images were captured on day 22-23 post-implantation for all treatment groups, as shown in FIG. 29C.

AML #1 PDX = assay: AML patient derived xenograft model AML #1 (treatment naïve); assay type: in vivo, immune deficient mice (NSG-SGM3, or NSG); settings: Table 25; 30 mg/kg QDx5
Experimental: as §1, §2, §3
(§4) In the AML patient derived xenograft (PDX) models from treatment naïve and relapsed post allogeneic […] patients, treatment began when 2-16% blasts were detected in the periphery (n=3-5 mice/group/AML PDX model). Mice were treated with a single intravenous dose of anti-human CD45-ADC (AbA-AM), isotype-ADC, or vehicle (PBS). Ara-c was administered intravenously once daily for five consecutive days.

T-ALL PDX = assay: T-ALL patient-derived xenograft (PDX) model; assay type: in vivo, immune deficient mice (NSG-SGM3, or NSG); settings: for Median Survival (Days Post Implant): Table 24
Experimental: as §1, §2, §3

AML #2 PDX = assay: AML patient derived xenograft model AML #2 (relapsed refractory post allogeneic HSCT); assay type: in vivo, immune deficient mice (NSG-SGM3, or NSG); settings: Table 26; 30 mg/kg QDx5
Experimental: as §1, §2, §3, §4

[1] = Quintieri et al. 2005; cited from earlier work

## COc1cccc2c1C(=O)c1c(O)c3c(c(O)c1C2=O)C[C@@](O)(C(=O)CO)C[C@@H]3O[C@H]1C[C@H](N)[C@H](O)[C@H](C)O1 [Doxorubicin, doxorubicin]
REH-Luc ALL cells
  Median Survival (Days Post Implant): 50^† Days

## Nc1ccn([C@@H]2O[C@H](CO)[C@@H](O)[C@@H]2O)c(=O)n1 [Ara-C]
AML #1 PDX
  Median Survival (Days Post Implant): 97^† Days
T-ALL PDX; 30 mg/kg QDx5
  Median Survival (Days Post Implant): 77*^† Days
AML #2 PDX
  Median Survival (Days Post Implant): 60^†‡ Days

## C[C@@H]1C[C@H]2[C@@H]3CCC4=CC(=O)C=C[C@]4(C)[C@@]3(F)[C@@H](O)C[C@]2(C)[C@@]1(O)C(=O)CO [Dexamethasone, dexamethasone]
T-ALL PDX; 5 mg/kg Q3Dx9
  Median Survival (Days Post Implant): 47*^‡ Days
T-ALL PDX; text b933, AbA-AM1 single injection 3, or 6 mg/kg on day 5, n=5 mice/group
  median survival: 47 days

## COc1cccc2c1C(=O)c1c(O)c3c(c(O)c1C2=O)C[C@@](O)(C(=O)CO)C[C@@H]3O[C@H]1CC2[C@H](O[C@@H]3[C@@H](OC)OCCN23)[C@H](C)O1 (stereo partly shown) [PNU-159682]
[1]
  cytotoxicity relative to the parent nemorubicin: greater than 3000 fold
